Laboratory results taken from patent US5792793A, “Antibacterial, antifungal and antiviral agent” (priority 1993, dated 1998).

Key:
Aspergillus flavus = test: Surface-smearing method, Aspergillus flavus; type: cell-based; conditions: about 10 mg complex, 4 days at 25° C.
Penicillium chrysogenum = test: Surface-smearing method, Penicillium chrysogenum; type: cell-based; set-up: key: the proliferation level of the control (=100%, -); +: up to 80% of proliferation with respect to the proliferation level of the control (=100%, -); ++: up to 40% of proliferation; +++: almost complete suppression of proliferation; conditions: about 10 mg complex, 4 days at 25° C.
[1] = test system: Cladosporium cladosporoides; test: Surface-smearing method, Cladosporium cladosporoides; type: cell-based; set-up: key: the proliferation level of the control (=100%, -); +: up to 80% of proliferation with respect to the proliferation level of the control (=100%, -); ++: up to 40% of proliferation; +++: almost complete suppression of proliferation; conditions: about 10 mg complex, 4 days at 25° C.
Fusarium oxysporum = test: Surface-smearing method, Fusarium oxysporum; type: cell-based; conditions: about 10 mg complex, 4 days at 25° C.
E. coli = test: Minimal inhibitory concentration, E. coli; type: cell-based; conditions: SCD liquid medium, 48 hours at 35° C.
S. aureus = test: Minimal inhibitory concentration, S. aureus; type: cell-based; conditions: SCD liquid medium, 48 hours at 35° C.
B. subtilis = test: Minimal inhibitory concentration, B. subtilis; conditions: SCD liquid medium, 48 hours at 35° C.
Protocol: (§1) (b) Method for measuring antibacterial activity based on a minimal inhibitory concentration (MIC)
(§2) A bacterium was inoculated in a soybean casein digest (SCD) liquid medium (5 ml) and precultured for 24 hours at 35° C. The precultured bacterial liquid was diluted so as to obtain a 100-fold diluted liquid (0.1 ml), and was inoculated into an SCD liquid medium containing a thiol-silver complex (2 ml). After performing shaking culture for 48 hours at 35° C., presence or absence of proliferation was assessed.

C. albicans = test: Minimal inhibitory concentration, C. albicans; conditions: GP liquid medium, 48 hours at 35° C.
Protocol: (§3) Yeast was inoculated in a glucose-peptone (GP) liquid medium (5 ml) and precultured for 24 hours at 35° C. The precultured bacterial liquid was diluted so as to obtain a 100-fold diluted liquid (0.1 ml), and was inoculated into a GP liquid medium containing a thiol-silver complex (2 ml). After performing shaking culture for 48 hours at 35° C., presence or absence of proliferation was assessed.

P. aeruginosa = test: Minimal inhibitory concentration, P. aeruginosa; conditions: SCD liquid medium, 48 hours at 35° C.
Protocol: as §1, §2

S. cerevisiae = test: Minimal inhibitory concentration, S. cerevisiae; conditions: GP liquid medium, 48 hours at 35° C.
Protocol: as §3

Solubility in water = conditions: 20° C.
[2] = Stability against exposure to light (color difference); type: physicochemical
Protocol: To 10 mg of each of the thiol-silver complexes shown in Table 9 to be tested, 1 ml of ethanol was added and then sonicated so as to disperse particles. The dispersed particles were uniformly fixed onto a Kiriyama filter paper (No. 3, diameter: 21 mm) by the application of a suction force. After drying, test pieces of the filter paper were sandwiched between colorless transparent plastic films (each having a thickness of 0.1 mm) and the peripheries were sealed.
The test pieces were exposed to sunlight outdoors on a sunny day. During the test, they were placed such that their surfaces received direct rays of the sun at an incidence angle of approximately 90°.
Measurement was performed using a color difference meter CR-300 (using D65 rays) manufactured by Minolta Camera Co., Ltd. Six hours after exposure to sunlight, measurement was reiterated 4 times and the data were averaged.

mice = test: Peroral toxicity, single dose; type: in vivo, mice (ICR, male); conditions: for Dead mice/Total mice: day 14
[3] = test system: human cytomegalovirus (HCMV); test: Anti-HCMV activity, Experiment 1; type: cell-based; conditions: 10 μg/ml; Experiment 1, HCMV 1×10^3 pfu/ml, HEL cells, 72 hours; control 30
[4] = test system: human cytomegalovirus (HCMV); test: Anti-HCMV activity, Experiment 2 (1); type: cell-based; conditions: HCMV 1×10^4 pfu/ml, medium not changed, 72 hours, control 390
[5] = test system: human cytomegalovirus (HCMV); test: Anti-HCMV activity, Experiment 2 (2); type: cell-based; conditions: HCMV 1×10^4 pfu/ml, washed after 1 hour adsorption, 72 hours, control 120
[6] = after exposure to sunlight, six hours

| Compound | antibacterial activity ranking, surface-smearing method (Aspergillus flavus) | antibacterial activity ranking, surface-smearing method (Penicillium chrysogenum) | antibacterial activity ranking, surface-smearing method [1] | antibacterial activity ranking, surface-smearing method (Fusarium oxysporum) | Minimal Inhibitory Concentration (E. coli) | Minimal Inhibitory Concentration (S. aureus) | Minimal Inhibitory Concentration (B. subtilis) | Minimal Inhibitory Concentration (C. albicans) | Minimal Inhibitory Concentration (P. aeruginosa) | Minimal Inhibitory Concentration (S. cerevisiae) | also measured |
| --- | --- | --- | --- | --- | --- | --- | --- | --- | --- | --- | --- |
| 2-Naphthalenethiol-silver complex [#3] | + (up to 80% of proliferation with respect to the proliferation level of the control (=100%, -)) | + (up to 80% of proliferation with respect to the proliferation level of the control (=100%, -)) | +++ | - (the proliferation level of the control (=100%, -)) | 8 µg/mL | 250 µg/mL | < 2 µg/mL | 125 µg/mL | 250 µg/mL | 62.5 µg/mL |  |
| 5-Mercapto-(1H)tetrazoylacetic acid-silver complex.Na [#16-b] | + (up to 80% of proliferation with respect to the proliferation level of the control (=100%, -)) | +++ | +++ | ++ (up to 40% of proliferation) | 16 µg/mL | 32 µg/mL | 32 µg/mL | 250 µg/mL | 16 µg/mL | 125 µg/mL |  |
| [Cl][Ag] [silver chloride] |  |  |  |  |  |  |  |  |  |  | solubility, in water (Solubility in water): less than 1 % by weight |
| Thiosalicylic acid-silver complex [#1L-8H] | - (the proliferation level of the control (=100%, -)) | ++ (up to 40% of proliferation) | +++ | ++ (up to 40% of proliferation) | < 2 µg/mL | 16 µg/mL | < 2 µg/mL | 1000 µg/mL | 16 µg/mL | 125 µg/mL | L* (L*a*b* color representation) [2, 6]: 65.4; a* (L*a*b* color representation) [2, 6]: 8.3; b* (L*a*b* color representation) [2, 6]: 40.1; L* (L*a*b* color representation) ([2]; before exposure to sunlight): 83.1; a* (L*a*b* color representation) ([2]; before exposure to sunlight): 13.2; b* (L*a*b* color representation) ([2]; before exposure to sunlight): 66.4; Dead mice/Total mice (mice; 1762 mg/kg peroral single dose): 0/5; Dead mice/Total mice (mice; 2291 mg/kg peroral single dose): 0/5; Dead mice/Total mice (mice; 2978 mg/kg peroral single dose): 0/4; Dead mice/Total mice (mice; 3871 mg/kg peroral single dose): 0/4; LD50 (mice; peroral, single dose, ICR male mice, 20160 min): not less than 3.9 g/kg; number of cells positive in fluorescent staining (single field of vision) [3]: 5; number of cells positive in fluorescent staining (single field of vision) ([4]; 1 μg/ml): 280; number of cells positive in fluorescent staining (single field of vision) ([4]; 10 μg/ml): 240; number of cells positive in fluorescent staining (single field of vision) ([4]; 50 μg/ml): 100; number of cells positive in fluorescent staining (single field of vision) ([5]; 1 μg/ml): 30; number of cells positive in fluorescent staining (single field of vision) ([5]; 10 μg/ml): 30; number of cells positive in fluorescent staining (single field of vision) ([5]; 50 μg/ml): 20 |
| α-Thioglycerol-silver complex [#14-b] | - (the proliferation level of the control (=100%, -)) | + (up to 80% of proliferation with respect to the proliferation level of the control (=100%, -)) | ++ (up to 40% of proliferation) | - (the proliferation level of the control (=100%, -)) |  | 250 µg/mL | 250 µg/mL | > 1000 µg/mL | 62.5 µg/mL | 250 µg/mL |  |
